What was measured:
[1] = system: PSD-95 protein; assay: Immunohistochemical staining of mouse brain tissue for PSD-95; assay type: in vivo; settings: hippocampus of APP/PS1ΔE9 mice treated for 2 months (A-B in FIG. 3)
[2] = system: soluble Aβ; assay: Western blot of soluble Aβ in mouse brain tissue; assay type: in vivo
Protocol: Gemfibrozil was administered to 8-month-old APP/PS1ΔE9 mice (male and female halves). Gemfibrozil was first dissolved in dimethyl sulfoxide (DMSO) at a concentration of 50 mg/mL, and then diluted to a final concentration of 50 μg/mL with mouse drinking water to obtain a drug solution. The mice in the administration group were allowed to freely drink the drug solution containing gemfibrozil, in which the final concentration of DMSO in the solution was 0.1%; and the mice in the control group were allowed to drink water containing 0.1% DMSO freely. All drinking devices contained with Gemfibrozil were wrapped in aluminum foil to prevent decomposition by exposure. During dosing, the drug solution was replaced every 2 days. Mice were measured daily for water consumption. After 2 months of dosing, all mice were subjected to behavioural experiments. Mice were placed in the laboratory to be behaviourally tested one hour prior to the start of daily behavioural studies, and all behavioural experiments were completed between 9 and 17 o'clock. All experiments involving animals were approved by Animal Ethics Committee of the Kunming Institute of Zoology, CAS.
4. Expression of Related Proteins by Western Blot
The specific steps were as follows:
1) Extracting protein: the protein was extracted from the mouse brain tissue using western and an IP lysate from Beyotime Biotechnology.
2) Determining protein concentration: HM and U251-APP cells and mouse brain proteins were measured using a BCA protein quantification kit, and the extracted proteins were used for subsequent detection.
3) Pretreatment before loading: each sample was loaded at 20 μg depending on the protein concentration. The protein denaturant anhydrous mercaptoethanol was first added to denature the proteins at 95° C. for 6 minutes. After denaturation, the sample was placed on ice and stood for 5 minutes.
4) Loading and performing ectrophoresis: the denatured protein samples were loaded to the corresponding wells to start electrophoresis.
5) Membrane transfer treatment: according to the ratio of the reagent required by 1 L of a membrane transfer solution (10× membrane transfer solution: anhydrous methanol:water=1:2:7), a certain amount of the membrane transfer solution was prepared, the sponge and filter paper were immersed in the membrane transfer solution, and the PVDF membrane was previously immersed in anhydrous methanol for 30 seconds to be activated. A membrane transfer plate was manufactured according to the sequence of sponge-filter paper-glue-membrane-filter paper-sponge (the protein was negatively charged, and was transferred to a PVDF membrane towards the positive electrode). […]

[3] = hippocampus and cortex of APP/PS1ΔE9 mice, Western blot (A-B in FIG. 4)

Cc1ccc(C)c(OCCCC(C)(C)C(=O)O)c1 [Gemfibrozil, 2,2-dimethyl-5-(2,5-dimethylphenoxy) pentanoic acid]
PSD-95 immunoreactivity [1]: significantly up-regulated | ratio of Aβ42 and Aβ40 (soluble) ([2]; between groups, Western blot (A-B in FIG. 4)): did not change significantly | level of Aβ40 (soluble) [2, 3]: decreased significantly | level of Aβ42 (soluble) [2, 3]: decreased significantly | soluble Aβ ([2]; hippocampus and cortex of APP/PS1ΔE9 mice, vs control group (A-B in FIG. 4)): significantly reduced
